Source: patent US10662194B2, “Substituted 6-anilino-9-heterocyclylpurine derivatives for inhibition of plant stress” (UNIVERZITA PALACKEHO V OLOMOUCI, priority 2014, dated 2020)
Converted amounts (≈) assume the structure as drawn. Marks after values point to notes of the source that are not given here.

Assays:
[1] = Compound solubility limit in the test medium; format: physicochemical; settings: read-out: highest concentration accessible due to the compound solubility
Description: Maintenance of genome integrity is essential for homeostasis and survival as impaired DNA damage response may predispose to grave pathologies such as neurodegenerative and immunodeficiency syndromes, cancer and premature aging (Mistrik et al., 2009). The potential effect of compound 12 on stimulation of DNA breakage was thus further estimated through analysis of phosphorylated histone H2AX (gamma-H2AX) quantified by optimized automated single-cell image analysis (Mistrik et al., 2009). The compound 12 was tested in concentration of 100 μM, the highest concentration accessible due to the compound solubility. Induction of DNA breakage was tested using human U2OS cells. The U2OS cells were cultivated at standard cultivation condition (37° C., 5% CO2). As a positive control, cells were irradiated by roentgen radiation (Baltobloc) (0.5 Gy-2 Gy), one hour later fixed and stained for γ-H2AX, a well established marker of the DNA damage. Parallel samples were treated by compound 12 for 24 hours, fixed and also stained for γ-H2AX. Microscopy analysis followed by computer based signal quantification was performed as described previously (Mistrik et al., 2009).

[2] = test system: wild-type Arabidopsis plants; test: In vitro root growth of wild-type Arabidopsis plants; format: in vivo; settings: 0.1 μM in MS medium, FIG. 6
Protocol: As shown in previous example presence of compound 12 in the growth medium has positive effect on the root growth of cytokinin-deficient Arabidopsis plants. This effect was further studied using wild-type Arabidopsis plants and compared with biologically and structurally relevant compounds, a cytokinin BAP and a CKX inhibitor INCYDE. […] Arabidopsis seedlings were grown in vitro on a standard MS medium containing 0.1 μM cytokinin BAP, the same concentration of compound 12 and the same concentration of CKX inhibitor INCYDE (2-chloro-6-(3-methoxyanilino)purine).

[3] = test system: ARR5:GUS reporter gene; test: Induction of cytokinin reporter ARR5:GUS in transgenic Arabidopsis plants; format: in vivo; settings: 0.01-10 μM, 17 h, FIG. 2
Protocol: Cytokinins induce in Arabidopsis transcription of gene ARR5, a member of A-type response regulator family classified as cytokinin primary response genes being expressed down-stream of sensing by cytokinin receptors. We cultivated transgenic Arabidopsis plants harbouring PARR5::GUS reporter (D'Agostino et al. Plant Physiol. 124: 1706-1717, 2000) in MS medium containing cytokinin BAP, CKX inhibitor INCYDE and novel compounds 12 and 91 in concentrations 0.01, 0.1, 1, 5, 10 μM; DMSO (0.1%) was tested as solvent control. Seeds were surface-sterilized in 70% ethanol and then placed into wells of 6-well microtiter plate (TPP, Switzerland) containing 3 mL of MS medium in each well. After sowing plates were pretreated in dark at 4° C. to synchronize the germination of the seeds. […] Quantitative estimation of the level of ARR5:GUS gene induction was done according to method published by Romanov et al. (Romanov et al. FEBS Letters 515: 39-43, 2002). After extraction of proteins the GUS activity was determined using incubation with fluorogenic substrate MUG (4-methylumbelliferyl glucuronid; 1 h, 37° C.) and then fluorescence 365 nm and 460 nm (excitation and emission wavelengths) was recorded, as described in detail by Spíchal et al. (Spíchal et al. Plant and Cell Physiology 45: 1299-1305, 2004).

[4] = test system: maize hybrides Amadeo and Zidane; test: Seed coating, shoot biomass of silage maize (field experiment); format: in vivo
Protocol: Based on the results discussed in previous Example 25, field plot experiments were performed on two different locations (Kroměříž Czech Republic; Olomouc, Czech Republic) in years 2012 and 2013 to evaluate the effect of seed coating with compound 12 on biomass formation of maize. In
the season 2012 the seeds of maize (hybrid Amadeo; KWS, FAO 230) were coated with 10 and 50 μM water solution of compound 12 (8 L of solution per 1000 kg of seeds). The seeds were dried and then sown in the sowing rate 90.000 seeds per hectare in 4 replications per each variant in randomized positions (each replication was 10 square meter plot). The plants were harvested when reached the stage of 33-34% of dry mass. The plants were then analyzed for their moisture and standardized dry mass.
The experiment was repeated in the season 2013 with 50 μM concentration of compound 12 in the same experimental design with maize hybrid Zidane (KWS, FAO 250).

**Q.** For `COc1cccc(Nc2nc(Cl)nc3c2ncn3C2CCCCO2)c1` (stereo not shown) [compound 12, 2-chloro-6-(3-methoxyanilino)-9-(tetrahydropyran-2-yl)purine], which solubility [1] is on record?
**A.** 100 µM (≈ 36 µg/mL)

**Q.** And the root growth [2]?
**A.** positive effect on the root length and lateral branching

**Q.** What about the “induction of ARR5:GUS expression” value [3] of the same molecule?
**A.** dose-dependent induction of ARR5:GUS expression

**Q.** What about the “Absolute dry matter yield” value ([4]; 10 μM, Kroměříž, 2012) of the same molecule?
**A.** 23.06 t/ha

**Q.** And the “Absolute green matter yield” value ([4]; 10 μM, Kroměříž, 2012)?
**A.** 52.19 t/ha

**Q.** What about the Height before harvest ([4]; 10 μM, Kroměříž, 2012) of the same molecule?
**A.** 276.6 cm

**Q.** What about the “Height before harvest (% of control)” value ([4]; 10 μM, Kroměříž, 2012) of the same molecule?
**A.** 101.0 % of control

**Q.** And the “Relative dry matter yield (% of control)” value ([4]; 10 μM, Kroměříž, 2012)?
**A.** 110.85 % of control

**Q.** What about the “Absolute dry matter yield” value ([4]; 10 μM, Olomouc, 2012) of the same molecule?
**A.** 17.01 t/ha

**Q.** What about the “Absolute green matter yield” value ([4]; 10 μM, Olomouc, 2012) of the same molecule?
**A.** 43.20 t/ha

**Q.** And the Height before harvest ([4]; 10 μM, Olomouc, 2012)?
**A.** 237.3 cm

**Q.** What about the “Height before harvest (% of control)” value ([4]; 10 μM, Olomouc, 2012) of the same molecule?
**A.** 98.3 % of control

**Q.** What about the “Relative dry matter yield (% of control)” value ([4]; 10 μM, Olomouc, 2012) of the same molecule?
**A.** 110.94 % of control

**Q.** What about the “average silage yield counted from all trials” value ([4]; 10 μM, counted from 2 trials) of the same molecule?
**A.** 110.9%

**Q.** What about the “Absolute dry matter yield” value ([4]; 50 μM, Kroměříž, 2012) of the same molecule?
**A.** 22.18 t/ha

**Q.** What about the “Absolute green matter yield” value ([4]; 50 μM, Kroměříž, 2012) of the same molecule?
**A.** 49.52 t/ha

**Q.** What about the Height before harvest ([4]; 50 μM, Kroměříž, 2012) of the same molecule?
**A.** 273.5 cm

**Q.** What about the “Height before harvest (% of control)” value ([4]; 50 μM, Kroměříž, 2012) of the same molecule?
**A.** 99.8 % of control

**Q.** And the “Relative dry matter yield (% of control)” value ([4]; 50 μM, Kroměříž, 2012)?
**A.** 106.63 % of control

**Q.** What about the “Absolute dry matter yield” value ([4]; 50 μM, Kroměříž, 2013) of the same molecule?
**A.** 22.33 t/ha

**Q.** And the “Absolute green matter yield” value ([4]; 50 μM, Kroměříž, 2013)?
**A.** 66.47 t/ha

**Q.** What about the “Relative dry matter yield (% of control)” value ([4]; 50 μM, Kroměříž, 2013) of the same molecule?
**A.** 107.82* % of control

**Q.** What about the “Absolute dry matter yield” value ([4]; 50 μM, Olomouc, 2012) of the same molecule?
**A.** 17.80 t/ha

**Q.** What about the “Absolute green matter yield” value ([4]; 50 μM, Olomouc, 2012) of the same molecule?
**A.** 44.31 t/ha

**Q.** And the Height before harvest ([4]; 50 μM, Olomouc, 2012)?
**A.** 235.8 cm

**Q.** What about the “Height before harvest (% of control)” value ([4]; 50 μM, Olomouc, 2012) of the same molecule?
**A.** 97.7 % of control

**Q.** What about the “Relative dry matter yield (% of control)” value ([4]; 50 μM, Olomouc, 2012) of the same molecule?
**A.** 116.06 % of control

**Q.** And the “Absolute dry matter yield” value ([4]; 50 μM, Olomouc, 2013)?
**A.** 19.23 t/ha

**Q.** And the “Absolute green matter yield” value ([4]; 50 μM, Olomouc, 2013)?
**A.** 68.78 t/ha

**Q.** What about the Height before harvest ([4]; 50 μM, Olomouc, 2013) of the same molecule?
**A.** 246.4 cm

**Q.** What about the “Height before harvest (% of control)” value ([4]; 50 μM, Olomouc, 2013) of the same molecule?
**A.** 100.8 % of control

**Q.** What about the “Relative dry matter yield (% of control)” value ([4]; 50 μM, Olomouc, 2013) of the same molecule?
**A.** 101.33 % of control

**Q.** And the “average silage yield counted from all trials” value ([4]; 50 μM, counted from 3 trials)?
**A.** 105.3%

**Q.** And the “effect on the plant height” value ([4]; seed treatment, all field plot experiments)?
**A.** without any effect on the plant height
